{
  "source": "patent US7645878B2",
  "about": "“Process for preparing quinazoline Rho-kinase inhibitors and intermediates thereof” (Bayer Healthcare LLC, priority 2002, dated 2010)",
  "data": [
    {"smiles": "c1ccc2c(Nc3ccc4[nH]ncc4c3)nc(-c3ccc4c(c3)CCO4)nc2c1", "note": "[Example 9, 2-(2,3-dihydro-1-benzofuran-5-yl)-N-(1H-indazol-5-yl)-4-quinazolinamine]", "values": [
      {"measurement": "melting point", "value": "267 to 272", "unit": "°C"}
    ]}
  ]
}
